Paper PMC12188386, “Selective CBP/EP300 Bromodomain Inhibitors: Novel Epigenetic Tools to Counter TNF-α-Driven Inflammation” (JACS Au, 2025)

Experiments:
[1] = molecular target: T1, CBP-BRD (ePL-CBP-BRD in HEK293T cells) (Homo sapiens, UniProt Q92793); assay: CBP-BRD InCELL Pulse cellular target engagement; assay type: cell-based; conditions: 1 h compound treatment of HEK293T cells transiently transfected with ePL-CBP-BRD
T1 construct: (residues 1083-1197) was cloned into the pICP-ePL-C vector; expressed in transfected cells; host or cells: HEK293T, transient transfection (vector pICP-ePL-C, DiscoverX 94-4007S)
T1 sequence (Q92793 1083-1197): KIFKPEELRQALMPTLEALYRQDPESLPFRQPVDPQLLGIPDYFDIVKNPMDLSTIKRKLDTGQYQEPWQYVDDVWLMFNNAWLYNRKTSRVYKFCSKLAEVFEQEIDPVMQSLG
Procedure: The CBP-BRD (residues 1083-1197) was cloned into the pICP-ePL-C vector (DiscoverX, 94-4007S) between the EcoRI and XhoI restriction sites using the hexahistidine-CREBBP plasmid as a template. 5x10^5 HEK293T cells were plated on a 6 well plate the day prior to transfection with 1.5 μg ePL-CBP-BRD plasmid using 5 μl FugeneHD (Promega E2311) in 500 μl optiMEM® (Gibco, 31985062) . Proteins were allowed to express for 20 h before cells were trypsinized, washed and resuspended in low -serum medium (DMEM with 5 % FBS). Compounds were serially diluted in DMSO at 100x, pre-diluted to 5x in complete medium (DMEM with 10 % FBS and 1 % P/S), then added to a suspension of 5x10^3 cells, giving a final DMSO concentration of 1 %. Treated cells were incubated for 1 h at 37 °C in an incubator, followed by a heat shock for 3 min at 45 °C and recovery for 3 min at 22 °C using a thermocycler with a ramp rate of 1 °C/s (SimpliAmp, Thermo Fisher). Stab ilized ePL tag was quantified using the InCELL detecti n Kit isc verX as per the manufacturer’s pr t c usin the -10 working detection solution and a 2 h incubation before reading luminescence with a SpectraMax M5 plate reader (Molecular devices). […]

BRD4(1) = BRD4(1) (Homo sapiens, UniProt O60885); assay: BROMOscan bromoKdELECT; assay type: binding; conditions: commercial Bromoscan assay
Procedure: (§1) was used as the calibration curve. To obtain saturated solutions of the compounds of interest, in duplicates 4.4 µL of a 10 or 5 mM stock in DMSO was added to 436 µL Buffer (PBS, pH = 7.4), to give a final concentration of 100 or 50 µM. Samples were incubated on a shaker (500 rpm) at 37°C for 90 minutes and then filtered (Millex-GV 13 mm, 0.22 µm). 304 µL of the filtrate was mixed with 76 µL of acetonitrile on a dilution plate, from which 350 µL was transferred to a UV-plate and UV-absorption was read using a SpectraMax M5 (Molecular devices). The absorbance was blank-corrected and compared to the calibration curve to […]
(§2) solubility. The wavelengths used for the calibration curve are available in Table S4.
(§3) Sample preparation in CAPTISOL® […]
(§4) lower solubility (2) compounds respectively in a 12.5 w/v% CAPTISOL® solution in water. In a precisely tared vial, required amounts of compounds and CAPTISOL® were weighed out as solids. Based on the known density of 12.5 % CAPTISOL® solution (d = 1.05755 g/mL at 25 °C), the precise weight of the resulting solution and so the required amount of water by weight was calculated. The water was added portion wise with agitation, vortexing and sonication cycles in between additions. The saturated solutions were then filtered (Millex-GV 13 mm, 0.22 µm). In duplicates, aliquots of the filtrates were taken and diluted with blank 12.5 % CAPTISOL® water solution in either a 1:14 (higher sol. compounds) or 1:7 (lower sol. compounds) ratio, 350 µL was transferred to a 96-Well Plate (Greiner, UV-star) then UV absorption (240-400 nm, 10 nm steps) was measured using a SpectraMax M5 (Molecular devices). […] The calculated concentrations are available in Table S4. […]
The bromodomain concentration in the eluates was measured by qPCR.
Test compounds were prepared as 1000X stocks in DMSO and distributed by acoustic transfer (non-contact dispensing). […] KDs were determined using an 11-point 3-fold compound dilution series with one DMSO control point, and were calculated with a standard dose-response curve using the Hill equation: […]

[2] = tested on: myc expression in LP1 cells; assay: myc mRNA expression by RT-qPCR; assay type: cell-based; conditions: 4 h treatment of LP1 cells with 1 μM compound
Procedure: For myc expression, 1x10^6 LP1 cells were plated the day prior to a 4 h treatment with compounds at a final DMSO concentration of 0.1 %. […]
In all cases, total
RNA was extracted using the NucleoSpin® RNA kit (Machery -Nagel) and used for cDNA synthesis with the High -Capacity cDNA Reverse Transcription kit (Applied Biosystems). RT-qPCR reactions were performed using PowerSYBR™ green PCR Master Mix (Applied Biosystems) and a LightCycler® 480 (Roche). cDNA was denatured for 10 min at 95 °C followed by 40 cycles of 15 s at 95 °C and 1 min at 60 °C. Cp values were determined as the maximum of the second derivative and target gene expression was compared to that of hprt from the same sample using the 2-ΔCp method. Gene expression was then normalized to the average of the control samples from the same day, or all biological replicates. […]

panel of 32 bromodomains = assay: bromoMAX BROMOscan panel; assay type: binding; conditions: 1 µM
Procedure: as §1
solubility. […]
as §4, with “In a precisely tared vial, required amounts of compounds and CAPTISOL® were weighed out as solids.” left out, “The water was added portion wise with agitation, vortexing and sonication cycles in between additions. The saturated solutions were then filtered (Millex-GV 13 mm, 0.22 µm).” left out
The bromodomain concentration in the eluates was measured by qPCR. […]

[3] = concentration in saturated 12.5% CAPTISOL solution; assay type: physicochemical; conditions: filtered 12.5 w/v% CAPTISOL in water, st. dev. between technical replicates (n=2)
Procedure: as §1, §2, §3
lower solubility (2) compounds respectively in a 12.5 w/v% CAPTISOL® solution in water. In a precisely tared vial, required amounts of compounds and CAPTISOL® were weighed out as solids. Based on the known density of 12.5 % CAPTISOL® solution (d = 1.05755 g/mL at 25 °C), the precise weight of the resulting solution and so the required amount of water by weight was calculated. The water was added portion wise with agitation, vortexing and sonication cycles in between additions. The saturated solutions were then filtered (Millex-GV 13 mm, 0.22 µm). In duplicates, aliquots of the filtrates were taken and diluted with blank 12.5 % CAPTISOL® water solution in either a 1:14 (higher sol. compounds) or 1:7 (lower sol. compounds) ratio, 350 µL was transferred to a 96-Well Plate (Greiner, UV-star) then UV absorption (240-400 nm, 10 nm steps) was measured using a SpectraMax M5 (Molecular devices). The absorption was blank-corrected, compared to the calibration curve obtained during the solubility measurement method above and finally corrected for the dilution ratio to obtain the compound concentration in the saturated 12.5 % CAPTISOL® solution. The calculated concentrations are available in Table S4.
BROMOscan™ assays (provided by Eurofins DiscoverX, US)1,2 […]
coli host derived from the BL21 strain. […]

| cellular binding to CBP-BRD (InCELL Pulse) [1] | Kd (BRD4(1)) [µM] | Compound | myc mRNA expression [2] | selectivity over BRD4(1) and a broader panel of BRD-containing proteins (panel of 32 bromodomains) | Conc. in 12.5% Captisol sol. [3] [µM] |
| --- | --- | --- | --- | --- | --- |
| no ligand engagement in cellulo | 5.8 | CC(=O)Nc1cc(NC(=O)c2ccco2)cc(C(=O)Nc2cccc3nnc(C)cc23)c1 [Compound 1] | not observed | – | – |
| able to engage the target very similarly | 5.1 | Cc1cc2c(NC(=O)c3cc(NC(=O)[C@H]4CCCO4)cc(-c4ccn(C)n4)c3)cccc2nn1 [Compound 5] | significantly decreased the expression level of myc | highly selective | 790 ± 18 |

| Compound | cellular binding to CBP-BRD (InCELL Pulse) [1] | Kd (BRD4(1)) [µM] | myc mRNA expression [2] | selectivity over BRD4(1) and a broader panel of BRD-containing proteins (panel of 32 bromodomains) | Conc. in 12.5% Captisol sol. [3] [µM] |
| --- | --- | --- | --- | --- | --- |
| Cc1cc2c(NC(=O)c3cc(NC(=O)c4ccco4)cc(-c4ccn(C)n4)c3)cccc2nn1 [Compound 2] | significant improvement in terms of cellular target engagement | 3.7 | significantly decrease myc expression levels | highly selective | 160 ± 1 |
